# Columns and labels:
# ADRα1B = experiment: PBK modelling-based reverse dosimetry of in vitro EC50 to ED50, ADRα1B; details: predicted human oral ED50 from in vitro EC50 (Pinckaers et al. [2024]) and modelled Cmax plasma venous
# From the text: (§1) The in vitro effect concentrations (EC50), for activation of the α1A, α1B, α1D, α2A, α2B, β1 and β2 ADR activation and the activation of TAAR1, were obtained from our previous study (Pinckaers et al. [2024]).
# ADRβ2 = experiment: PBK modelling-based reverse dosimetry of in vitro EC50 to ED50, ADRβ2; details: predicted human oral ED50 from in vitro EC50 (Pinckaers et al. [2024]) and modelled Cmax plasma venous
# From the text: as §1
# in vitro = details: human; for Papp B→A at 60 min, 10 µM / efflux ratio at 60 min, 10 µM: Caco-2, pH 7.4; for recovery at 60 min, 10 µM: after 60 min, mean ± SD
# Protocol: (§2) Caco-2 cells (ATCC, Manassas, VA, USA; passage 30–44) were cultured in DMEM (Gibco, New York, USA) containing 4.5 g/L d-glucose, 4 mM L-glutamine and supplemented with 10% FBS (Gibco, Grand Island, NY, USA), 1% minimal essential medium non-essential amino acids (Gibco, Paisley, UK), 100 units/mL penicillin and 100 µg/mL streptomycin (Gibco, Grand Island, NY, USA). Cells were seeded at a density of 4.0 × 10^4 cells/cm^2 on polyester transwell insert membranes (12 mm insert, 0.4 µm pore size; Corning incorporated, Kennebunk, ME, USA). Cells were maintained in a humidified incubator with 5% CO2 at 37 °C for 21 or 22 days in 0.5 mL and 1.5 mL medium in the apical and basolateral compartments, respectively. The medium was refreshed every two or three days and always one day before the permeability assay.
# (§3) On the day of the experiment, cells were washed twice with HBSS without phenol red (pH 7.4; Sigma-Aldrich, Steinheim, Germany) supplemented with 0.35 g/L sodium bicarbonate and 25 mM HEPES and they were equilibrated in this supplemented HBSS for 15 min in a humidified incubator with 5% CO2 at 37 °C. […] These stocks were diluted to a final concentration of 10 µM in pre-warmed supplemented HBSS (final DMSO level = 0.1%). After 15 min, the transepithelial electrical resistance (TEER) was measured with an Epithelial Voltohmmeter (World Precision Instruments, Sarasota, USA). Compound transport was studied in two directions: from the apical to the basolateral compartment (A-B) and from the basolateral to the apical compartment (B-A). For A-B experiments, 450 µL of the compound (10 µM) was added to the apical side and 1200 µL supplemented HBSS was added to the basolateral side. A sample of 50 µL was removed immediately from the apical compartment at time point zero. After 15 and 30 min, samples were taken from the basolateral compartment. Cells were kept in the incubator during the experiment. After 60 min, medium from both compartments was sampled, cells were washed twice with supplemented HBSS and were maintained in the incubator. After 15 min, the TEER was measured again to check for epithelial barrier damage due to compound exposure. After this, cells were lysed in RIPA buffer (Thermo Scientific, Rockford, IL, USA). For B-A experiments, 400 µL of supplemented HBSS was added to the apical side and 1250 µL of the compound (10 µM) was added to the basolateral side. A sample of 50 µL was removed immediately from the basolateral compartment at time point zero. After 15 and 30 min, samples were taken from the apical compartment. After 60 min, samples were taken similarly as in A-B experiments. The sampled medium and cell lysates were stored at −20 °C till the day of the liquid chromatography–mass spectrometry (LC–MS/MS) analysis. All experiments were run in duplicate. The compounds were quantified with LC–MS/MS as described in Sect. "LC–MS/MS analysis".
# (§4) Before chemical analysis, cell lysates were two times diluted in ice-cold methanol and centrifuged at 15,000 rpm at 4 °C. The supernatant was then injected into the LC–MS/MS system. Sampled buffer from donor compartments was diluted 40 times in buffer and samples from the receiver compartment were analysed undiluted. Standards were prepared in the same assay buffer to quantify the amount of compound in medium samples. For quantification of compounds in cell lysates, standards were prepared in a mixture of 50% RIPA buffer and 50% methanol.
# (§5) All data are presented as mean ± SD.
# (§6) For the < Tsi > a value of 3.32 h was used (Grandoni et al. [2019]).
# Caco-2 cells = experiment: in vitro; details: for fa (fraction absorbed) / ka (absorption rate constant): scaled from corrected Caco-2 Papp A-B, human; for metabolic breakdown by Caco-2 cells: Caco-2 transport studies, 10 µM
# Protocol: as §2, §3, §4, §5, §6
# [1] = Caco-2, pH 7.4, Papp A-B corrected, corrected for the difference between Papp A-B of metoprolol in this study and in literature
# [2] = Caco-2, pH 7.4, Papp A-B, Caco-2, apical to basolateral, 10 µM, HBSS pH 7.4, mean ± SD, duplicate
# [3] = Caco-2, pH 7.4, Recovery (A-B), Caco-2, A-B experiments
# [4] = Caco-2, pH 7.4, Recovery (B-A), Caco-2, B-A experiments
Structure (SMILES),ADRα1B ED50 (ADRα1B),ADRβ2 ED50 (ADRβ2),"Papp B→A at 60 min, 10 µM (in vitro) [×10⁻⁶ cm/s]","efflux ratio at 60 min, 10 µM (in vitro)","Papp A→B at 60 min, 10 µM (in vitro; [1]) [×10⁻⁶ cm/s]","Papp A→B at 60 min, 10 µM (in vitro; [2]) [×10⁻⁶ cm/s]","recovery at 60 min, 10 µM (in vitro; [3]) [%]","recovery at 60 min, 10 µM (in vitro; [4]) [%]",fa (fraction absorbed) (Caco-2 cells),ka (absorption rate constant) (Caco-2 cells) [h⁻¹],metabolic breakdown by Caco-2 cells (Caco-2 cells)
"CN(C)CCc1ccccc1 [Dimethylphenethylamine, N,N-dimethylphenethylamine]",4.07 mg/kg bw,– (compounds with a dash (-) did not activate the receptors in vitro at concentrations ≤ 300 µM),13.1 ± 0.51,0.891,53.5,14.7 ± 0.244,76.7 ± 0.06,93.3 ± 4.81,1.00,3.66,–
"CNCC(O)c1ccccc1 (stereo not shown) [Halostachine, halostachine]",1.32 mg/kg bw,– (compounds with a dash (-) did not activate the receptors in vitro at concentrations ≤ 300 µM),10.3 ± 0.649,0.786,47.8,13.1 ± 0.144,84 ± 3.18,93.9 ± 0.0289,1.00,3.46,–
"Oc1ccc(CC2NCCc3cc(O)c(O)cc32)cc1 (stereo not shown) [Higenamine, higenamine]",– (compounds with a dash (-) did not activate the receptors in vitro at concentrations ≤ 300 µM),2.92 mg/kg bw,0.0612 ± 0.00186,1,0.223,0.061 ± 0.0351,104 ± 0.35,105 ± 1.06,0.860,0.246,–
"CN(C)CCc1ccc(O)cc1 [Hordenine, hordenine]",1.90 mg/kg bw,– (compounds with a dash (-) did not activate the receptors in vitro at concentrations ≤ 300 µM),11.2 ± 0.22,0.862,47.3,13 ± 0.192,96.7 ± 1.27,107 ± 0.0262,1.00,3.46,–
"CC(C)NCC(O)c1ccc(O)cc1 (stereo not shown) [Isopropyloctopamine, isopropyloctopamine]",– (compounds with a dash (-) did not activate the receptors in vitro at concentrations ≤ 300 µM),– (compounds with a dash (-) did not activate the receptors in vitro at concentrations ≤ 300 µM),0.652 ± 0.0444,–,2.56,0.703 ± 0.041,79.8 ± 2.19,76.5 ± 1.27,0.994,0.818,–
CNC(C)C(O)c1ccc(O)cc1 (stereo not shown) [Methylsynephrine],– (compounds with a dash (-) did not activate the receptors in vitro at concentrations ≤ 300 µM),– (compounds with a dash (-) did not activate the receptors in vitro at concentrations ≤ 300 µM),0.39 ± 0.202,1.1,1.3,0.353 ± 0.215,114 ± 8.39,102 ± 11.7,0.971,0.563,–
"NCCc1ccccc1 [Phenethylamine, phenethylamine]",– (compounds with a dash (-) did not activate the receptors in vitro at concentrations ≤ 300 µM),– (compounds with a dash (-) did not activate the receptors in vitro at concentrations ≤ 300 µM),1.95 ± 1.04,0.677,10.5,2.88 ± 0.22,15.7 ± 1.51,103 ± 3.36,1.00,1.64,metabolized by Caco-2 cells
"NCCc1ccc(O)cc1 [Tyramine, tyramine]",– (compounds with a dash (-) did not activate the receptors in vitro at concentrations ≤ 300 µM),– (compounds with a dash (-) did not activate the receptors in vitro at concentrations ≤ 300 µM),1.13 ± 0.67,–,8.7,2.38 ± 1.19,114 ± 11.2,84 ± 6.25,1.00,1.50,not observed
"CNCC(O)c1ccc(O)cc1 (stereo not shown) [p-Synephrine, Synephrine]",0.914 mg/kg bw,– (compounds with a dash (-) did not activate the receptors in vitro at concentrations ≤ 300 µM),0.22 ± 0.0453,–,3.47,0.951 ± 0.497,109 ± 1.48,100 ± 4.89,0.997,0.951,not observed
"CC(CN)c1ccccc1 (stereo not drawn) [β-Methylphenethylamine, β-methylphenethylamine]",– (compounds with a dash (-) did not activate the receptors in vitro at concentrations ≤ 300 µM),– (compounds with a dash (-) did not activate the receptors in vitro at concentrations ≤ 300 µM),12.1 ± 2.02,0.766,57.6,15.8 ± 1.47,80.9 ± 3.27,89.3 ± 4.46,1.00,3.79,–

# Source: article PMC12085399, “Quantitative in vitro-to-in vivo extrapolation of human adrenergic and trace amine-associated receptor 1 potencies of pre-workout supplement ingredients using physiologically based kinetic modelling-based reverse dosimetry” (Archives of Toxicology, 2025)
